Patent US11667630B2, “Nitrogen-containing 6-membered cyclic compound” (Asahi Kasei Pharma Corporation, priority 2017, dated 2023)

Experiments:
dog femur = test: Neo-osteogenesis action in dog femur; type: in vivo; details: beagle dogs, four weeks
Method: In order to investigate an osteogenesis-promoting action of the compounds of the present invention, for influence of administration of microspheres containing a test compound in the vicinity of the femur of dog, osteogenesis-promoting action was evaluated by measuring new bone formed after the administration.
Nine to eleven months old female beagle dogs ([…] LABES) were anesthetized by administration of a 1:1 mixture of ketamine hydrochloride (Ketalar 500 mg, Daiichi Sankyo Propharma Co., Ltd.) and xylazine (Selactar 2% Injection, Bayer Yakuhin, Ltd.) at a dose of about 0.5 mL/kg, and isoflurane listed in Japanese Pharmacopoeia (Elucaine, Mylan Pharmaceutical) was used for maintenance anesthesia, which was administered with an inhaler IMPAC6 (VetEquip Inc.). After hair of the femoral region of the right hind leg was shaved, and disinfection treatment was performed, 350 μL of a microsphere suspension obtained by suspending microspheres (prepared according to the method of Preparation Example 1 or 2) containing a test compound (compound of Example 23) in a CMC solution was transdermally administered around the periosteum of the femoral diaphysis by using a 1-mL injection syringe and a 21G injection needle. The doses of the test compound were 0.01, 0.1, 1.0, 10, and 100 μg/site, and the aforementioned microspheres were used in an amount corresponding to each dose. As a control group, a drug liquid obtained by suspending the microspheres not containing the test compound in 350 μL of the CMC solution alone was administered. Four weeks after the administration of the drug liquid, the animals were euthanized by bleeding under pentobarbital sodium (Somnopentyl) anesthesia. The femurs of both sides were extracted, immersed in a 10% neutral buffered formalin solution, and stored. The bone mineral content of the femur was measured by using Discovery X-ray bone density analyzer (produced by Toyo Medic). The test was performed with the groups each consisting of 4 dogs

human EP2 receptor = target: T1, human EP2 receptor (Homo sapiens, UniProt P43116); test: Receptor binding test, [3H]PGE2 binding inhibition, EP2; details: [3H]PGE2 2.56 nmol/L, membrane fraction HTS185M, 25°C 60 minutes
T1 construct: purchased Merck Millipore HTS185M
T1 sequence (P43116 whole entry): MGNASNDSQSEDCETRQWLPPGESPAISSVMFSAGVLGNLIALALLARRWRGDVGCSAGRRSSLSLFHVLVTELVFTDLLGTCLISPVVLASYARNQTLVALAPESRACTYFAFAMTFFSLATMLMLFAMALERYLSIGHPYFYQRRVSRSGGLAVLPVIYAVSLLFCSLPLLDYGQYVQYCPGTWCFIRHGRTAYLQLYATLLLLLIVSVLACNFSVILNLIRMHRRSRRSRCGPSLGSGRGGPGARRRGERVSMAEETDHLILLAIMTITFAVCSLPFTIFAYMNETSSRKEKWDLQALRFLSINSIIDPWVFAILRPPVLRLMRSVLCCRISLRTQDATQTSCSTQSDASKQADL
Method: In order to evaluate selectivity to each EP receptor subtype, [^3H]PGE2 binding-inhibition activities of test compounds for cell membranes on which human EP2, human EP3, and human EP4 receptors were stably expressed were measured.
As the membrane fractions of the prostaglandin E receptors EP2, EP3, and EP4, 10.0 μg protein/tube each of HTS185M, HTS092M, and HTS142M of Merck Millipore were used, respectively. Each membrane fraction was incubated with a reaction mixture (250 μL/tube) containing a test compound and [3H]PGE2 at 25° C. for 60 minutes. […] After the reaction, the membrane fraction was collected on filter paper by using a cell harvester, the filter paper was transferred to a measurement vial, and the measurement was performed on a liquid scintillation counter.
The nonspecific binding was determined as binding observed in the presence of excess amount (10 μM) of unlabeled PGE2. The measurement of the [3H]PGE2 binding-inhibiting activity of a test compound was performed by adding the test compound at various concentrations. The following buffers were used for the reaction.
Buffer for EP2: 50 mmol/L HEPES-NaOH (pH 7.4) containing 5 mmol/L MgCl2, 1 mmol/L CaCl2), and 0.2% BSA

[1] = test system: dog lumbar vertebrae posterolateral fixation model; test: Bone union-promoting action in dog lumbar vertebrae posterolateral fixation model; type: in vivo; details: twelve weeks after operation; for Continuity score based on soft X-ray image (Mean ± SD): grades 0 to 3 per Table 9; for Manual evaluation of bone union: beagle dogs, microspheres containing compound of Example 23 mixed with autologous bone graft, animals with union/5
Method: In order to investigate a bone union-promoting action in the spinal fusion of the compounds of the present invention, influence of mixing of microspheres containing a test compound at the time of autologous bone grafting was confirmed by using a lumbar vertebrae posterolateral fixation model.
Twelve to thirteen months old male beagle dogs ([…] LABES) were anesthetized by administration of a 1:1 mixture of ketamine hydrochloride (Ketalar 500 mg, Daiichi Sankyo Propharma Co., Ltd.) and xylazine (Selactar 2% Injection, Bayer Yakuhin, Ltd.) at a dose of about 0.5 mL/kg, and Japanese Pharmacopoeia-listed isoflurane (Elucaine, produced by Mylan Pharmaceutical) was inhaled with an inhaler IMPAC6 (VetEquip Inc.) to maintain the anesthesia. The animal was fixed in the prone position, hair of a wide area over the right and left spina iliaca posterior superiors, part around iliac crest, and lower back was shaved, and disinfection treatment was performed with povidone-iodine listed in Japanese Pharmacopoeia (Isodine solution for animals, 20 mg of povidone-iodine listed in Japanese Pharmacopoeia in 1 mL, Meiji Seika Pharma) and ethanol for disinfection (Wako Pure Chemical Industries). […] About 2 g each of the right and left iliums were extracted by using a rongeur and bone scissors, and astriction was performed. The collected ilium, from which the soft tissues were removed, was finely broken with bone scissors, and thereby made into chips of 1 mm size to obtain 2 g each of bone grafts for right and left. Then, the skin was dissected along the spinous processes of lower back with a scalpel, the left and right lumbodorsal fascias were dissected, and then the transverse processes of the fourth and fifth lumbar vertebrae were exposed while the multifidus muscle and longissimus muscle were separated and dissected between the fascias thereof. The soft tissues adhering to the transverse processes were removed, and then decortication of the cortical bone on the surface of the transverse processes was performed with an electric drill (OS-40MV2, Osada Electric Co., Ltd.) to prepare a bone graft bed. The bone graft (2 g) prepared above was sufficiently mixed with a microsphere suspension obtained by suspending microspheres containing a test compound (compound of Example 23) in an amount corresponding to 10, 30, or 100 μg of the test compound (prepared according to the method of Preparation Example 1) in 800 μL of a CMC solution, embedded and grafted on the transverse processes of the fourth and fifth lumbar vertebrae, and the bone graft bed between the transverse processes. After the autologous bone grafting, the lumbodorsal fascia, subcutaneous tissues, and skin were sutured, and the surgical site was disinfected. Twelve weeks after the operation, the animals were euthanized with overdose (30 mg/kg) of sodium pentobarbiturate (Somnopentyl, Kyoritsuseiyaku Corporation), and then the lumbar vertebrae were extracted. Bone union was judged by manually confirming movability of the fourth and fifth lumbar vertebrae (manual palpation) under blinding, and soft X-ray images were obtained from one direction by using Softex M-60 (Softex). The test was performed with the groups each consisting of 5 animals.

**Q.** How did the “Bone mineral content of femur 1/3 center region (g) Left femur (no administration of compound)” value (dog femur; microspheres containing compound of Example 23, 0.01 μg/site at right femur) turn out when `O=C(O)c1ccc(CCN2C(=O)SCCN2CC[C@@H](O)Cc2cccc(C#Cc3ccsc3)c2)s1` [Example 23, (S)-5-(2-(4-(3-Hydroxy-4-(3-(thiophen-3-ylethynyl)phenyl)butyl)-2-oxo-1,3,4-thiadiazinan-3-yl)ethyl)thiophene-2-carboxylic acid] was run?
**A.** 2.9 ± 0.4 g

**Q.** And the “Bone mineral content of femur 1/3 center region (g) Right femur (administered with compound)” value (dog femur; microspheres containing compound of Example 23, 0.01 μg/site)?
**A.** 2.9 ± 0.4 g

**Q.** What about the “Bone mineral content of femur 1/3 center region (g) Left femur (no administration of compound)” value (dog femur; microspheres containing compound of Example 23, 0.1 μg/site at right femur) of the same compound?
**A.** 2.6 ± 0.1 g

**Q.** And the “Bone mineral content of femur 1/3 center region (g) Right femur (administered with compound)” value (dog femur; microspheres containing compound of Example 23, 0.1 μg/site)?
**A.** 2.7 ± 0.2 g

**Q.** And the “Bone mineral content of femur 1/3 center region (g) Left femur (no administration of compound)” value (dog femur; microspheres containing compound of Example 23, 1.0 μg/site at right femur)?
**A.** 3.0 ± 0.1 g

**Q.** What about the “Bone mineral content of femur 1/3 center region (g) Right femur (administered with compound)” value (dog femur; microspheres containing compound of Example 23, 1.0 μg/site) of the same compound?
**A.** 4.1 ± 0.4 g

**Q.** And the “Bone mineral content of femur 1/3 center region (g) Left femur (no administration of compound)” value (dog femur; microspheres containing compound of Example 23, 10 μg/site at right femur)?
**A.** 2.8 ± 0.3 g

**Q.** And the “Bone mineral content of femur 1/3 center region (g) Right femur (administered with compound)” value (dog femur; microspheres containing compound of Example 23, 10 μg/site)?
**A.** 6.4 ± 0.7 g

**Q.** And the “Bone mineral content of femur 1/3 center region (g) Left femur (no administration of compound)” value (dog femur; microspheres containing compound of Example 23, 100 μg/site at right femur)?
**A.** 2.7 ± 0.4 g

**Q.** And the “Bone mineral content of femur 1/3 center region (g) Right femur (administered with compound)” value (dog femur; microspheres containing compound of Example 23, 100 μg/site)?
**A.** 8.2 ± 1.1 g

**Q.** And the IC50 (human EP2 receptor)?
**A.** > 1000 nM

**Q.** And the “Continuity score based on soft X-ray image (Mean ± SD)” value (“Continuity score based … (Mean ± SD)” for short) ([1]; 10 μg/site)?
**A.** 2.4 ± 0.5

**Q.** What about the “Continuity score based … (Mean ± SD)” value ([1]; 30 μg/site) of the same compound?
**A.** 2.6 ± 0.5

**Q.** What about the “Continuity score based … (Mean ± SD)” value ([1]; 100 μg/site) of the same compound?
**A.** 2.8 ± 0.4

**Q.** And the “Manual evaluation of bone union” value ([1]; 10 μg/site)?
**A.** 4/5

**Q.** And the “Manual evaluation of bone union” value ([1]; 30 μg/site)?
**A.** 4/5

**Q.** What about the “Manual evaluation of bone union” value ([1]; 100 μg/site) of the same compound?
**A.** 4/5
